{"source": "patent US9238019B2", "about": "“Antitussive and bronchodilator uses for enaminone ester” (UNIVERSITY OF KUWAIT, priority 2006, dated 2016)", "key": {"[1]": {"test_system": "guinea pig bronchial preparations pre-contracted with carbachol", "assay": "Agonist-induced relaxation of guinea pig bronchial ring preparations pre-contracted with carbachol", "settings": "concentration response curves repeated after one hour; compared with salbutamol", "method": "Two groups of guinea pigs, each group containing twelve guinea pigs, were decapitated under light ether anesthesia and the tracheas were dissected out with the lungs en bloc. The origin of bifurcation of the trachea into bronchioles was identified after removal of the excess connective tissue. The isolated bronchioles were cut into ring segments of 4 mm in length. The preparations were mounted in organ baths containing 25 mL Krebs-Henseleit (KH) solution at pH 7.4, maintained at 37° C. and aerated with a 95% O2 and 5% CO2 mixture. The preparations were left to stabilize for 45 minutes, changing the KH solution at 15-minute intervals. A pre-tension of 0.75 gm was applied, and a stabilization period of 45 minutes was allowed until a stable baseline tone was obtained. Isolated segments of the bronchioles were pre-contracted with carbachol (3 μM). Responses of the carbachol pre-contracted bronchial ring segments to the different agonists were determined by measurement of changes in the isometric tension, using computerized automatic organ bath analyzing instruments.\nBronchodilator responses to salbutamol (10^−9-3×10^−4 M) and enaminone ester E121 (10^−9-10^−4 M) were investigated on different preparations of the bronchioles. […] The bronchodilator responses were expressed as a percentage reduction of the carbachol induced pre-contraction. […]"}, "guinea pigs [2]": {"test_system": "guinea pigs", "assay": "Citric acid-induced cough in conscious guinea pigs (whole body plethysmography)", "assay_type": "in vivo, guinea pig", "settings": "100 mg/kg in DMSO intraperitoneally, 1 h before citric acid (0.6 M) aerosol; coughs counted over 15 min; vs vehicle group; FIG. 2", "method": "(§1) In order to test the effectiveness of enaminone ester E121 as an antitussive, two groups of guinea pigs were established. Group 1 was a control group, which consisted of ten guinea pigs, who were administered vehicle only (100% dimethyl sulfoxide [DMSO]) intraperitoneally. Group 2 was a test group, which consisted of ten guinea pigs, who were administered enaminone E121 (100 mg/kg in DMSO) intraperitoneally (i.e., via intraperitoneal injection). Each group was separately placed in a transparent whole body plythesmography box (Buxco, Troy, N.Y.) for testing one hour after administration of the vehicle or the enaminone ester E121, respectively.\nEach group was allowed a settling period in the whole body plethysmograph, after which baseline airway function was recorded for 2 minutes before administration of an aerosol. Animals in each group were then exposed to citric acid (0.6 M) aerosol for 10 minutes, during which cough and airway function were recorded, and for an additional 5 minutes thereafter (a total of 15 minutes). The aerosols were generated using a DeVilbiss aerogen ultrasonic nebulizer (DeVilbiss, Somerset, Pa.), the nebulized spray having an aerodynamic mass median diameter droplet size range of […] (manufacturer's indication). […]\nCoughs were recorded from conscious, unrestrained guinea pigs manually by a trained observer as confirmation. […]"}, "guinea pigs [3]": {"test_system": "guinea pigs", "assay": "Airway obstruction (enhanced pause, Penh) during citric acid aerosol exposure", "assay_type": "in vivo, guinea pig", "settings": "100 mg/kg in DMSO intraperitoneally; citric acid (0.6 M) aerosol; vs vehicle group; FIG. 3", "method": "as §1\nEach group was allowed a settling period in the whole body plethysmograph, after which baseline airway function was recorded for 2 minutes before administration of an aerosol. Animals in each group were then exposed to citric acid (0.6 M) aerosol for 10 minutes, during which cough and airway function were recorded, and for an additional 5 minutes thereafter (a total of 15 minutes). […]\nThe pressure differences between the main chamber of the whole body plethysmograph containing the animals and a reference chamber (box pressure signal) were measured. […]"}, "Solid-state stability": {"assay": "Solid-state stability", "assay_type": "physicochemical", "settings": "room temperature"}}}
{"smiles": "CCOC(=O)C1C(=O)C=C(Nc2ccc(Cl)cc2)CC1C", "note": "(stereo not shown) [enaminone E121, ethyl 4-[(4-chlorophenyl)amino]-6-methyl-2-oxocyclohex-3-en-1-oate]", "values": [{"measurement": "tachyphylaxis of airway smooth muscle relaxant effect", "setting": "[1]", "result": "lower levels of tachyphalaxis than salbutamol"}, {"measurement": "number of coughs", "setting": "guinea pigs [2]", "result": "substantially lower incidence of coughs"}, {"measurement": "enhanced pause (Penh), bronchoconstriction or airway obstruction", "setting": "guinea pigs [3]", "result": "less bronchoconstriction or airway obstruction"}, {"measurement": "stability of the solid", "setting": "Solid-state stability", "result": "stable solid at room temperature"}]}
